Experimental data taken from EP0023093A1, “Penicillanic acid derivatives, their preparation and their pharmaceutical compositions with a penicillin or cephalosporin” (BEECHAM GROUP PLC, priority 1979, dated 1981).

Tests used:
Format in all cases: cell-based
Staph Russell = assay: standard MIC test, compound alone and in combination with ampicillin
Proteus C889 = assay: as above
[1] = test system: 7 cephalosporinase - producing E. coli strains; assay: standard MIC test, cephaloridine with synergist; settings: Escherichia coli, read-out: Geometric Mean (MIC)
From the text: A composition of sodium 6β-methanesulphonyloxypenicillanate and cephaloridine against 7 cephalosporinase - producing E. coli strains results in the following MIC's in a standard test.

[2] = substance alone (the 1st table)
[3] = substance alone (the 2nd table)

| MIC (Staph Russell; [2]) | MIC (Staph Russell; [3]) | MIC (Proteus C889; [2]) | MIC (Proteus C889; [3]) | SMILES | MIC [1] |
| --- | --- | --- | --- | --- | --- |
| 62.5 µg/mL | 250 µg/mL | 1000 µg/mL | > 2000 µg/mL | CC1(C)S[C@@H]2[C@H](NC(=O)[C@H](N)c3ccccc3)C(=O)N2[C@H]1C(=O)O [Ampicillin] |  |
|  | 16 µg/mL |  | > 500 µg/mL | CC1(C)S[C@@H]2[C@H](OS(=O)(=O)c3ccc(Br)cc3)C(=O)N2[C@H]1C(=O)O [Calcium 6β-p-bromobenzenzsulphonyloxypenicillanate] |  |
|  |  |  |  | O=C(Cc1cccs1)N[C@@H]1C(=O)N2C(C(=O)[O-])=C(C[n+]3ccccc3)CS[C@H]12 [Cephaloridine] | 152 µg/mL |
| 4 µg/mL |  | 62.5 µg/mL |  | CC1(C)S[C@@H]2[C@H](OS(C)(=O)=O)C(=O)N2[C@H]1C(=O)O [Sodium 6β-methanesulphonyloxypenicillanate] |  |
